One data set concerns human recombinant CtsL. Kind of data set: Fluorescent protease activity assay, recombinant CtsL. It counts as biochemical. The settings on record: 20 nM CtsL, 50 μM substrate, no inhibitor. The protocol:
(§1) Ac-PLVE-FMK and Ac-VLPE-FMK inhibitory properties were evaluated against human recombinant CtsL and B. These recombinant enzymes were expressed in E. coli via plasmid transformation and further purification, using nickel-nitrilotriacetic acid (Ni-NTA) sepharose. Gel zymography assay was used to provide a preliminary evaluation of the ability of these recombinant proteins to degrade the gelatin substrate previously embedded in the gel (Supplementary Figure S1). Following Coomassie staining, the Cts were detectable as single bands. As expected, a translucent area was evident, due to the substrate digestion in the proximity of the proteins. Then, the recombinant proteins were tested for their ability to digest the Triticain-α substrate Ac-PLVQ via fluorescent protease activity assay, previously optimized by our group. This probe was conjugated with the fluorogenic chromophore 7-amino-4-methylcoumarin (Ac-PLVQ-AMC). After proteolytic cleavage, it emits a detectable fluorescent signal.
(§2) Total RNA extract from retinoblastoma […] cells was used to obtain cDNA. A pair of oligonucleotides ([…] and […]) was used for the amplification of DNA fragment containing CtsB, the product of which was ligated into pET15b (Merck Millipore, Billerica, MA, USA) using NdeI and XhoI. DNA fragment containing CtsL was amplified using a pair of oligonucleotides ([…] and […]) and ligated into pET28a (+) (Merck Millipore, Billerica, MA, USA) using NheI and HindIII. […]
(§3) The activity of recombinant CtsL and B was detected by the hydrolysis of the fluorogenic substrate Ac-Pro-Leu-Val-Gln- 7-amino-4-methylcoumarin (AMC) (Pepmic Suzhou Jiangsu, China). […] The substrate was added to a final concentration of 50 μM, and its hydrolysis was continuously measured for 12 min using a CLARIOstar® Plus plate reader (BMG Labtech Ortenberg Baden-Württemberg, Germany) at excitation and emission wavelengths of 353 and 442 nm, respectively.

A further data set relates to human recombinant CtsB. Description: Fluorescent protease activity assay, recombinant CtsB. It counts as biochemical. The following applies: 20 nM CtsB, 50 μM substrate, no inhibitor. As to the method: as §1, §2, §3
A further data set relates to pancreatic cells. The following applies: 48 and 72 h; ref [58]; cited from earlier work. From the text:
In general, Cts inhibitors cannot be considered very potent cytostatic molecules. H ...

A further data set relates to 769-P cells. Kind of data set: Cell viability with paclitaxel (MTT), 769-P. The settings on record: PXT alone, 100 nM, 72 h. The format is cell-based, human. As to the method: (§4) To evaluate the inhibitory properties of the peptides directly on the human renal cancer cells, we firstly assessed the impact of Ac-PLVE-FMK and Ac-VLPE-FMK on the cell viability of 769-P and A498 cells to determine the working concentrations for further experiments. […] Further experiments were performed using a concentration of 20 μM. To understand if the peptides could affect the activity of caspase proteases, we tested their effect on cell viability in combination with the chemotherapeutic paclitaxel (PXT) in both the cell lines. […] Next, we evaluated the effect of the peptides on renal cancer cell proteolytic activity against the fluorogenic probe Ac-PLVQ-AMC. In this case, 769-p and A498 cells were treated for 30 min with Ac-PLVE-FMK or Ac-VLPE-FMK and were then exposed for 10 min to the substrate Ac-PLVQ-AMC prior fluorescence microscopy analysis (Figure 3c,d).
The cell number was evaluated by counting viable cells using the MTT (3-(4,5-dimethylthiazol-2-yl)-2,5-diphenyltetrazolium bromide) colorimetric assay. A total of 2 × 10^4 cells/well were seeded on independent 96-well plates for each time point (0, 24, 48, and 72 h), with five replicates and treated with two inhibitors (2.5–250 μM). Then, 10 µL of the MTT reagent was added to each well, and cells were incubated for another 5 h. Next, the absorbance value was measured using a CLARIOstar® Plus plate reader (BMG Labtech, Ortenberg, Germany) at 490 nm. Triplicate wells were assayed, and S.D.s were determined.
Figure S3. Combined effect of PXT and the inhibitors on 769‐P proliferation: 769‐P cells were treated with 100 nM of PXT alone or in combination with 20 μM of Ac‐PLVE and Ac‐VLPE and cell proliferation was measured after 24, 48, and 72 h via MTT assay. Data represent the mean (± S.D.) of three independent experiments, each performed in triplicate.
Figure S4. Spheroids size and circularity: (a,b) size and circularity of 769‐P and (c,d) A498 cells upon treatment with Ac‐PLVE‐FMK and Ac‐VLPE‐FMK. Data represent the mean (± S.D.) of three independent experiments, each performed in triplicate. […]

Another data set relates to A498 cells. Description: Cell mortality with paclitaxel, A498. It counts as cell-based, human. The settings on record: PXT alone (data not shown). The protocol:
as §4
The cell number was evaluated by counting viable cells using the MTT (3-(4,5-dimethylthiazol-2-yl)-2,5-diphenyltetrazolium bromide) colorimetric assay. A total of 2 × 10^4 cells/well were seeded on independent 96-well plates for each time point (0, 24, 48, and 72 h), with five replicates and treated with two inhibitors (2.5–250 μM). […] Next, the absorbance value was measured using a CLARIOstar® Plus plate reader (BMG Labtech, Ortenberg, Germany) at 490 nm. Triplicate wells were assayed, and S.D.s were determined.

In the case of “Ac-Pro-Leu-Val-Gln- 7-amino-4-methylcoumarin (AMC) [Ac-PLVQ-AMC, fluorogenic Triticain-α substrate conjugated with 7-amino-4-methylcoumarin, reference compound]”, the Substrate cleavage result in the data set with human recombinant CtsL and with human recombinant CtsB was “able to cleave the probe” throughout.

Turning to `CC(C)C[C@H](NC(=O)[C@H]1O[C@@H]1C(=O)O)C(=O)NCCCCN=C(N)N` [E64], the Cytotoxic effect result with pancreatic cells is “only a moderated cytotoxic effect, which reached a plateau phase after 48 and 72 h”.

Turning to `CC(=O)O[C@H]1C(=O)[C@@]2(C)[C@H]([C@H](OC(=O)c3ccccc3)[C@]3(O)C[C@H](OC(=O)[C@H](O)[C@@H](NC(=O)c4ccccc4)c4ccccc4)C(C)=C1C3(C)C)[C@]1(OC(C)=O)CO[C@@H]1C[C@@H]2O` [PXT, paclitaxel, reference compound], in the data set with 769-P cells, the “Ability to kill cancer cells” value was “the ability of the PXT to kill cancer cells was evident after 72 h of treatment at a concentration of 100 nM”. In addition, the Cell mortality result in the data set with A498 cells is on record as “did not result in high mortality”.
